Measured values as given in PMC6333442, “Conserved allosteric pathways for activation of TRPV3 revealed through engineering vanilloid-sensitivity” (eLife, 2019).

Assays:
[1] = biological target: T1, rat TRPV2-4M (Rattus norvegicus, UniProt Q9WUD2, F472S/L507M/L510T/Q530E); assay: Two-electrode voltage clamp, TRPV2-4M in oocytes; type: cell-based; conditions: RTx 100 nM, room temperature, ±60 mV
T1 construct: expressed in transfected cells; host or cells: Xenopus laevis oocytes
T1 sequence (Q9WUD2 1-761 F472S/L507M/L510T/Q530E): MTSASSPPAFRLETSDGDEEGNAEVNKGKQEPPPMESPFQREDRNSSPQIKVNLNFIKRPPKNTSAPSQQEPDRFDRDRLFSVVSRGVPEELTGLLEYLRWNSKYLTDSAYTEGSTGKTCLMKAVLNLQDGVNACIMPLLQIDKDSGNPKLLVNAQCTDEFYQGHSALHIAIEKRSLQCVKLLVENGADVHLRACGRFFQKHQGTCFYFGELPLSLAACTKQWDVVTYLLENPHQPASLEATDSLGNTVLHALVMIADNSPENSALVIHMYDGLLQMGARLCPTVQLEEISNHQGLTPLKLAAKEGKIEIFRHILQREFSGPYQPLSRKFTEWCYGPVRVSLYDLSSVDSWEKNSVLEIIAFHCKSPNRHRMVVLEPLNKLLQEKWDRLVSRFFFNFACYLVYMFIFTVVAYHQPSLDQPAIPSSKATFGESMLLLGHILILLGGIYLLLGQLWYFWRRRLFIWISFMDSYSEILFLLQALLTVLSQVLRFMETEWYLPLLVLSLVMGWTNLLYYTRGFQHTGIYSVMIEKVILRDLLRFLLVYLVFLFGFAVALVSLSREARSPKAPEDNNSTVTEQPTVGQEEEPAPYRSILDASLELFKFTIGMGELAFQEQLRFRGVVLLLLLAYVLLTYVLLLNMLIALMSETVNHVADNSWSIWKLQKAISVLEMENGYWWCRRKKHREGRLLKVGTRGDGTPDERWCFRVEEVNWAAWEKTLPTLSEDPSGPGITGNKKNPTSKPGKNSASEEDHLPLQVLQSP
Description: All channel constructs were expressed in Xenopus laevis oocytes and studied using the two-electrode voltage clamp technique (TEVC) following 1–4 days of incubation after cRNA injection. The animal care and experimental procedures were performed in accordance with the Guide for the Care and Use of Laboratory Animals and were approved by the Animal Care and Use Committee of the National Institute of Neurological Disorders and Stroke (Animal protocol number 1253–17). Oocytes were removed surgically and incubated with agitation for 1 hr in a solution containing (in mM) 82.5 NaCl, 2.5 KCl, 1 MgCl2, 5 HEPES, pH 7.6 (with NaOH), and collagenase (2 mg/ml; Worthington Biochemical, Lakewood, NJ). Defolliculated oocytes were injected with cRNA for each of the constructs and incubated at 17°C in a solution containing (in mM) 96 NaCl, 2 KCl, 1 MgCl2, 1.8 CaCl2, 5 HEPES, pH 7.6 (with NaOH), and gentamicin (50 μg/ml, GIBCO-BRL, Gaithersburg, MD). Oocyte membrane voltage was controlled using an OC-725C oocyte clamp (Warner Instruments, Hamden, CT). Data were filtered at 1–3 kHz and digitized at 20 kHz using pClamp software (Molecular Devices, Sunnyvale, CA) and a Digidata 1440A digitizer (Axon Instruments). Microelectrode resistances were 0.1–1 MΩ when filled with 3 M KCl. For recording TRP channel currents, the external recording solution contained (in mM) 100 KCl, 10 HEPES, pH 7.6 (with KOH). […]

[2] = test system: TRPV3 single point mutants (V587L, F625L, F656I and F666Y); conditions: 2-APB 3 mM, room temperature
Description: All channel constructs were expressed in Xenopus laevis oocytes and studied using the two-electrode voltage clamp technique (TEVC) following 1–4 days of incubation after cRNA injection. The animal care and experimental procedures were performed in accordance with the Guide for the Care and Use of Laboratory Animals and were approved by the Animal Care and Use Committee of the National Institute of Neurological Disorders and Stroke (Animal protocol number 1253–17). Oocytes were removed surgically and incubated with agitation for 1 hr in a solution containing (in mM) 82.5 NaCl, 2.5 KCl, 1 MgCl2, 5 HEPES, pH 7.6 (with NaOH), and collagenase (2 mg/ml; Worthington Biochemical, Lakewood, NJ). […]
For temperature-activation experiments, calcium-activated chloride currents were minimized by using calcium-free solution containing 30 µM Caccinh-A01 and recording at negative membrane voltages. Heat stimuli were achieved by passing the external recording solution through glass capillary spirals immersed in a water bath maintained at about 70°C, and recordings were performed during constant perfusion with temperature measured using a thermistor (TA-29, Warner Instruments) located close to the cell. […] The mean I vs T relations were calculated by automatically binning each of the recordings in temperature intervals of 2°C, and averaging a single data point within each interval per cell. […]

SMILES: C=C(C)[C@]12C[C@@H](C)[C@@]34O[C@](Cc5ccccc5)(O[C@@H]1[C@@H]3C=C(COC(=O)Cc1ccc(O)c(OC)c1)C[C@]1(O)C(=O)C(C)=C[C@@H]41)O2 [RTx, resiniferatoxin]
- channel activation (current response) [1]: robust responses

SMILES: NCCOB(c1ccccc1)c1ccccc1 [2-APB, 2-aminoethoxydiphenyl borate]
- channel activation (current response) [2]: strong responses
